The test system of this test is E. Coli B. As to the kind of experiment: Antimicrobial sensitivity test: resistance signature of the microbial sample after adding the antibiotic. The test is classed as cell-based. Conditions: 0.9 mL of 10^3 CFU/mL E. Coli B in LB Broth + 0.1 mL antibiotic, room temperature; slope of control samples remains negative; FIGS. 7A-7D. Here is the method:
FIGS. 7A-7D depict signatures of microbial sample of 0.9 mL of a concentration of 10^3 CFU/mL of two-hour E. Coli B treated with 0.1 mL of antibiotics or antimicrobials and control samples in the absence thereof. What is common to all FIGS. 7A-7D is the slope for signatures with antibiotics or antimicrobials become positive, i.e., the resistance component of total impedance of the microbial sample increases, upon addition of the antibiotic or antimicrobial. The slope of the control samples remains negative.
In further detail, a difference in the degree of the slope change for the signature can be observed. […]
An overnight bacterial culture of E. coli B with a concentration of around 10^9 cells which had attained room temperature were diluted using LB Broth which had also attained room temperature to a final concentration of 10^3 cells. 0.9 ml of this solution was then placed into one sensor well which was connected to lead #1 of a reader unit. An additional 0.9 ml of the bacteria was placed into a second sensor well which was connected to lead#2 of a reader unit. […]
An overnight bacterial culture of E. coli B with a concentration of around 10^9 cells that had attained room temperature were diluted to a final concentration of 10^3 cells. 0.9 ml of this solution was then placed into a first sensor well which was connected to lead #1 of a reader unit. […]

Experimental findings from US20140162308A1, “DEVICE AND METHOD FOR I[…] AND COUNTING MICROBES AND DETERMINING ANTIMICROBIAL SENSITIVITY” (Texas State University, priority 2011, published 2014) are described below.

As for `Cc1cc(NS(=O)(=O)c2ccc(N)cc2)no1` [sulfamethoxazole], the “slope of the signature (resistance component of total impedance of the microbial sample) upon addition of the antibiotic or antimicrobial” value was “steeper than for azithromycin”.
